Test results from patent publication US20170369470A1, “Cyclic Compounds and Uses Thereof” (Karyopharm Therapeutics Inc., priority 2014, published 2017).

Columns and labels:
Format in all cases: cell-based
MS751 cells = assay: MTT cell proliferation assay, MS751 cells; conditions: MS751 cells (human cervix squamous cell carcinoma metastasis); incubation approximately 64-72 hours; read-out: MTT Assay IC50 MS 751
Description: (§1) The MTT cell proliferation assay was used to study the cytotoxic properties of the compounds. The assay was performed according to the method described by Roche Molecular Biochemicals, with minor modifications. The assay is based on the cleavage of the tetrazolium salt, MTT, in the presence of an electron-coupling reagent. The water-insoluble formazan salt produced must be solubilized in an additional step. Cells grown in a 96-well tissue culture plate were incubated with the MTT solution for approximately 4 hours. After this incubation period, a water-insoluble formazan dye formed. After solubilization, the formazan dye was quantitated using a scanning multi-well spectrophotometer (ELISA reader). […] The cells were seeded at 5,000-10,000 cells in each well of 96-well plate in 100 μL of fresh culture medium and were allowed to attach overnight. The stock solutions of the compounds were diluted in 100 μL cell culture medium to obtain eight concentrations of each test compound, ranging from 1 nM to 30 μM. […] All optical densities were measured at 490 nm using a Vmax Kinetic Microplate Reader (Molecular Devices). In most cases, the assay was performed in duplicate and the results were presented as a mean percent inhibition to the negative control±SE. The following formula was used to calculate the percent of inhibition: Inhibition (%)=(1−(ODo/OD))×100.
(§2) The compounds were tested against MS751, Z138 and 3T3 cells. The MS751 cell line is derived from a metastasis to lymph node of human cervix from a patient diagnosed with squameous cell carcinoma of the cervix. The Z138 cell line is a mature B-cell acute lymphoblastic leukemia cell line derived from a patient with chronic lumphocytic leukemia. 3T3 cells are standard fibroblast cells; they were originally isolated from Swiss mouse embryo tissue.

Z138 cells = assay: MTT cell proliferation assay, Z138 cells; conditions: Homo sapiens, Z-138; Z138 cells (mantle cell lymphoma line); incubation approximately 64-72 hours
Description: as §1, §2

3T3 cells = assay: MTT cell proliferation assay, 3T3 cells; conditions: NIH3T3; 3T3 fibroblast cells (Swiss mouse embryo); incubation approximately 64-72 hours
Description: as §1, §2

Row | Structure (SMILES) | IC50 (MS751 cells) [µM] | IC50 (Z138 cells) [µM] | IC50 (3T3 cells) [µM]
1 | CC1(C)COCCN1C(=O)c1ccc(-c2cc(C(F)(F)F)c3sc(CNC(=O)/C=C/c4ccc(N)nc4)cc3c2)nc1 [compound 508, (E)-3-(6-aminopyridin-3-yl)-N-((5-(5-(3,3-dimethylmorpholine-4-carbonyl)pyridin-2-yl)-7-(trifluoromethyl)benzo[b]thiophen-2-yl)methyl)acrylamide] | 1 to 5 | 1 to 5 | > 10
2 | CC1(F)CCN(C(=O)c2ccc(-c3cc(C(F)(F)F)c4sc(CNC(=O)/C=C/c5ccc(N)nc5)cc4c3)nc2)C1 (stereo not drawn) [compound 507, (E)-3-(6-aminopyridin-3-yl)-N-((5-(5-(3-fluoro-3-methylpyrrolidine-1-carbonyl)pyridin-2-yl)-7-(trifluoromethyl)benzo[b]thiophen-2-yl)methyl)acrylamide] | 1 to 5 | 1 to 5 | > 10
3 | Nc1ccc(/C=C/C(=O)NCc2cc3cc(-c4ccc(C(=S)N5CCC(F)(F)CC5)cn4)cc(C(F)(F)F)c3s2)cn1 [compound 504, (E)-3-(6-aminopyridin-3-yl)-N-((5-(5-(4,4-difluoropiperidine-1-carbonothioyl)pyridin-2-yl)-7-(trifluoromethyl)benzo[b]thiophen-2-yl)methyl)acrylamide] | < 1 | < 1 | > 10
4 | Nc1ccc(/C=C/C(=O)NCCc2cc3cc(-c4ccc(C(=O)N5CCC(F)(F)CC5)cn4)cc(C(F)(F)F)c3s2)cn1 [compound 534, (E)-3-(6-aminopyridin-3-yl)-N-(2-(5-(5-(4,4-difluoropiperidine-1-carbonyl)pyridin-2-yl)-7-(trifluoromethyl)benzo[b]thiophen-2-yl)ethyl)acrylamide] | < 1 | < 1 | < 1
5 | CC1(C)COCCN1C(=O)c1ccc(-c2cc(C(F)(F)F)c3sc(CNC(=O)/C=C/c4ccc(N)nc4)cc3c2)cc1 [compound 523, (E)-3-(6-aminopyridin-3-yl)-N-((5-(4-(3,3-dimethylmorpholine-4-carbonyl)phenyl)-7-(trifluoromethyl)benzo[b]thiophen-2-yl)methyl)acrylamide] | 1 to 5 | 1 to 5 | > 10
6 | Nc1ccc(/C=C/C(=O)NCc2cc3cc(-c4ccc(C(=O)N5CC6(COC6)C5)cn4)cc(C(F)(F)F)c3s2)cn1 [compound 511, (E)-N-((5-(5-(2-oxa-6-azaspiro[3.3]heptane-6-carbonyl)pyridin-2-yl)-7-(trifluoromethyl)benzo[b]thiophen-2-yl)methyl)-3-(6-aminopyridin-3-yl)acrylamide] | < 1 | < 1 | > 10
7 | Nc1ccc(/C=C/C(=O)NCc2cc3cc(-c4ccc(C(=O)N5CC6(C5)CC(F)(F)C6)cc4)cc(C(F)(F)F)c3s2)cn1 [compound 527, (E)-3-(6-aminopyridin-3-yl)-N-((5-(4-(6,6-difluoro-2-azaspiro[3.3]heptane-2-carbonyl)phenyl)-7-(trifluoromethyl)benzo[b]thiophen-2-yl)methyl)acrylamide] | 1 to 5 | 1 to 5 | > 10
8 | Cn1c(CNC(=O)/C=C/c2ccc(N)nc2)nc2c(C(F)(F)F)cc(-c3ccc(C(=O)N4CCC(F)(F)CC4)cn3)cc21 [compound 531, (E)-3-(6-aminopyridin-3-yl)-N-((6-(5-(4,4-difluoropiperidine-1-carbonyl)pyridin-2-yl)-1-methyl-4-(trifluoromethyl)-1H-benzo[d]imidazol-2-yl)methyl)acrylamide] | > 10 | > 10 | > 10
9 | Nc1ccc(/C=C/C(=O)NCc2cc3cc(-c4ccc(C(=O)N5CCC(F)(F)CC5)cc4)cc(-c4ccc(F)cc4)c3s2)cn1 [compound 536, (E)-3-(6-aminopyridin-3-yl)-N-((5-(4-(4,4-difluoropiperidine-1-carbonyl)phenyl)-7-(4-fluorophenyl)benzo[b]thiophen-2-yl)methyl)acrylamide] | < 1 | < 1 | > 10
